Converted amounts (≈) assume the structure as drawn.
What was measured:
HT-29 = assay: Antiproliferative activity against human HT-29 cells assessed as cell growth inhibition by propidium iodide staining based fluorescence assay; type: functional
MIA PaCa-2 = assay: Antiproliferative activity against human MIA PaCa-2 cells assessed as cell growth inhibition by propidium iodide staining based fluorescence assay; type: functional
PC-3 = assay: Cytotoxicity against human PC-3 cells assessed as cell growth inhibition by MTT assay; type: functional, cell-based
[1] = target: Hepatocyte growth factor receptor (Homo sapiens, UniProt P08581); assay: Inhibition of human recombinant c-MET in presence of ATP by HTRF assay
Chain of Hepatocyte growth factor receptor (P08581 whole entry): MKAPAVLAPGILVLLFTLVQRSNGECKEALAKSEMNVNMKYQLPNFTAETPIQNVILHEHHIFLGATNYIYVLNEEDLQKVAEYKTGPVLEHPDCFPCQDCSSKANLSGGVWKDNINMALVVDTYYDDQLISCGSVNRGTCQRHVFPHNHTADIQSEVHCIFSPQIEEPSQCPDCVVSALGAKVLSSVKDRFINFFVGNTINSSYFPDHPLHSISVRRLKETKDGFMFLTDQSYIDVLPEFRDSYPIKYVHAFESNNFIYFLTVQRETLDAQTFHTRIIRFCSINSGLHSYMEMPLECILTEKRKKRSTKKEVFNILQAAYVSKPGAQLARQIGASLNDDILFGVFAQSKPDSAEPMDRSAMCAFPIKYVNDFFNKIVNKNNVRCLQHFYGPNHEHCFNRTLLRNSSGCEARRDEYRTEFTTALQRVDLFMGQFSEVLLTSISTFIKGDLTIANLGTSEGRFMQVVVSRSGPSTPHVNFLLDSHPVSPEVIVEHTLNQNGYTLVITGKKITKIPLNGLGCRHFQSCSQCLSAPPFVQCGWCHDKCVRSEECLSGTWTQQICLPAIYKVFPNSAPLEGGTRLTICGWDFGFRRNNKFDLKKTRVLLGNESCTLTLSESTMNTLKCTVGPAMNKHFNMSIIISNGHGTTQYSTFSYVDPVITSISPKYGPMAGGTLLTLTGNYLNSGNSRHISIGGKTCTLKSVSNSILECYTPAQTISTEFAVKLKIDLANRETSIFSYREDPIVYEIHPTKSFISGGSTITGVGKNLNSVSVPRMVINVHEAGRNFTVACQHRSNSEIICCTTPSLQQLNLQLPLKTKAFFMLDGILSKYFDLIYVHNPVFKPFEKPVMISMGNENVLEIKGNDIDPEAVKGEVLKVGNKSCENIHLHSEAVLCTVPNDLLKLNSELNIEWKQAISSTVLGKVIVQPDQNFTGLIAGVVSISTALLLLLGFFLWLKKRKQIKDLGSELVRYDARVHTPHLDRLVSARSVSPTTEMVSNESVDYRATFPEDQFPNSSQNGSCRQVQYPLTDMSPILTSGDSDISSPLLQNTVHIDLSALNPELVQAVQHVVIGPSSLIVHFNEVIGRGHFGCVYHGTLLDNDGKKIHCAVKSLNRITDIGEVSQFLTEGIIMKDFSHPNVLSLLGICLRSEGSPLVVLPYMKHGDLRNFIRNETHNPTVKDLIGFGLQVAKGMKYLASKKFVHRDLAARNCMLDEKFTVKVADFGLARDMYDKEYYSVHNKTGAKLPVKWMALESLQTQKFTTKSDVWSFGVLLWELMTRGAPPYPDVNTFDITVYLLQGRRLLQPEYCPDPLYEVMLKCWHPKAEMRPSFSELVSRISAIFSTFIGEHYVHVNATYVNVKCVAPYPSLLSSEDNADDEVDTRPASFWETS

MDA-MB-468 = assay: Cytotoxicity against human MDA-MB-468 cells assessed as cell growth reduction measured after 48 hrs by MTT assay; type: functional, cell-based; details: MDA-MB-468, 48 h
MCF7 [2] = assay: Antiproliferative activity against human MCF7 cells assessed as cell growth inhibition incubated for 24 hrs by MTT assay; type: functional, cell-based; details: MCF7, 24 h
HepG2 [3] = assay: Antiproliferative activity against human HepG2 cells assessed as cell growth inhibition incubated for 24 hrs by MTT assay; type: functional, cell-based; details: HepG2, 24 h
HepG2 [4] = assay: Cytotoxicity against human HepG2 cells assessed as cell growth inhibition measured after 72 hrs by MTT assay; type: functional, cell-based; details: HepG2, 72 h
MCF7 [5] = assay: Cytotoxicity against human MCF7 cells assessed as cell growth inhibition measured after 72 hrs by MTT assay; type: functional, cell-based; details: MCF7, 72 h
A549 [6] = assay: Cytotoxicity against human A549 cells assessed as cell growth inhibition measured after 72 hrs by MTT assay; type: functional, cell-based; details: A549, 72 h
MCF7 [7] = assay: Cytotoxicity against human MCF7 cells assessed as cell growth inhibition by colorimetric method; type: functional, cell-based
[8] = target: T1, Vascular endothelial growth factor receptor 2 (Homo sapiens, UniProt P35968); assay: Inhibition of VEGFR2 (unknown origin) using poly (Glu,Tyr) 4:1 as substrate measured after 5 mins in presence of ATP by ELISA method
T1 sequence (P35968 whole entry): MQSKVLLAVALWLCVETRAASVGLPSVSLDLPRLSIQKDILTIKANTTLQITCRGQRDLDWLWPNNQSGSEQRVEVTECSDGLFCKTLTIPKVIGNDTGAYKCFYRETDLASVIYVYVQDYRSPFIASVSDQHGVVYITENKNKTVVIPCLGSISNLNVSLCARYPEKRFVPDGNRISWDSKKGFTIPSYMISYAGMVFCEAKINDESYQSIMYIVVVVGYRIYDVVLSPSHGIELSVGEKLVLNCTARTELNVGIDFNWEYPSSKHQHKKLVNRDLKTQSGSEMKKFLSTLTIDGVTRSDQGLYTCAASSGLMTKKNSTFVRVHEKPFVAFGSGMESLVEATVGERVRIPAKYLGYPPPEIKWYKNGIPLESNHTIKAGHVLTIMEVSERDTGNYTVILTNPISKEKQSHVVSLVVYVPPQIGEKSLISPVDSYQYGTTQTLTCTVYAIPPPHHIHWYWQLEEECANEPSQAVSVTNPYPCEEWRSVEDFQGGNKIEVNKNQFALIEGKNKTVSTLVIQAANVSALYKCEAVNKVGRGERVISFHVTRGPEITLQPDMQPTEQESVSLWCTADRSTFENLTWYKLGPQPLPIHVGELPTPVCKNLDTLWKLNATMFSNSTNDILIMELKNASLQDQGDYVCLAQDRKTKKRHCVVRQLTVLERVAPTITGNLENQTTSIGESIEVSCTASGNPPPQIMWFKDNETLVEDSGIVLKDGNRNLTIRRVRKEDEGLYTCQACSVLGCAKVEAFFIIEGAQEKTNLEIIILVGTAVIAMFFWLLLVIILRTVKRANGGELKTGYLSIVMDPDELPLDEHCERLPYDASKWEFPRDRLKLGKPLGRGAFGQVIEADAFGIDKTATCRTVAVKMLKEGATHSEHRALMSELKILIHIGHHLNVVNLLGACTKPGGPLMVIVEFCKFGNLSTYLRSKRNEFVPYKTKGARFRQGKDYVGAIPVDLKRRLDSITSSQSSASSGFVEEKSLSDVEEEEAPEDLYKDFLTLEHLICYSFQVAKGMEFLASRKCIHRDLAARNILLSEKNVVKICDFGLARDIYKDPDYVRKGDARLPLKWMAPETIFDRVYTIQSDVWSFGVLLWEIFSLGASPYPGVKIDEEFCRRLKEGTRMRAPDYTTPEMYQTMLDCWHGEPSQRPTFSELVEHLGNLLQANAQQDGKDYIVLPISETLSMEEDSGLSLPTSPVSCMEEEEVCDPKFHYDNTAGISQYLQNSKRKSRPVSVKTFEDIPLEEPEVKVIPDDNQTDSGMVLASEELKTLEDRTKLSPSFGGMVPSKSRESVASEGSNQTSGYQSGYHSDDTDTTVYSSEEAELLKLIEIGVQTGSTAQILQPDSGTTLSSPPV

HepG2 [9] = assay: Cytotoxicity against human HepG2 cells assessed as cell growth inhibition by colorimetric method; type: functional, cell-based
MCF7 [10] = assay: Cytotoxicity against human MCF7 cells assessed as cell growth inhibition measured after 48 hrs by MTT assay; type: functional, cell-based; details: MCF7, 48 h
P815 = assay: Cytotoxicity against mouse P815 cells assessed as cell growth inhibition measured after 48 hrs by MTT assay; type: functional, cell-based; details: P815, 48 h
[11] = target: Poly [ADP-ribose] polymerase 1 (Homo sapiens, UniProt P09874); assay: Displacement of [125I]KX1 from PARP1 in human OVCAR-8 cells incubated for 1 hr by wizard gamma counter analysis; type: cell-based
Chain of Poly [ADP-ribose] polymerase 1 (P09874 whole entry): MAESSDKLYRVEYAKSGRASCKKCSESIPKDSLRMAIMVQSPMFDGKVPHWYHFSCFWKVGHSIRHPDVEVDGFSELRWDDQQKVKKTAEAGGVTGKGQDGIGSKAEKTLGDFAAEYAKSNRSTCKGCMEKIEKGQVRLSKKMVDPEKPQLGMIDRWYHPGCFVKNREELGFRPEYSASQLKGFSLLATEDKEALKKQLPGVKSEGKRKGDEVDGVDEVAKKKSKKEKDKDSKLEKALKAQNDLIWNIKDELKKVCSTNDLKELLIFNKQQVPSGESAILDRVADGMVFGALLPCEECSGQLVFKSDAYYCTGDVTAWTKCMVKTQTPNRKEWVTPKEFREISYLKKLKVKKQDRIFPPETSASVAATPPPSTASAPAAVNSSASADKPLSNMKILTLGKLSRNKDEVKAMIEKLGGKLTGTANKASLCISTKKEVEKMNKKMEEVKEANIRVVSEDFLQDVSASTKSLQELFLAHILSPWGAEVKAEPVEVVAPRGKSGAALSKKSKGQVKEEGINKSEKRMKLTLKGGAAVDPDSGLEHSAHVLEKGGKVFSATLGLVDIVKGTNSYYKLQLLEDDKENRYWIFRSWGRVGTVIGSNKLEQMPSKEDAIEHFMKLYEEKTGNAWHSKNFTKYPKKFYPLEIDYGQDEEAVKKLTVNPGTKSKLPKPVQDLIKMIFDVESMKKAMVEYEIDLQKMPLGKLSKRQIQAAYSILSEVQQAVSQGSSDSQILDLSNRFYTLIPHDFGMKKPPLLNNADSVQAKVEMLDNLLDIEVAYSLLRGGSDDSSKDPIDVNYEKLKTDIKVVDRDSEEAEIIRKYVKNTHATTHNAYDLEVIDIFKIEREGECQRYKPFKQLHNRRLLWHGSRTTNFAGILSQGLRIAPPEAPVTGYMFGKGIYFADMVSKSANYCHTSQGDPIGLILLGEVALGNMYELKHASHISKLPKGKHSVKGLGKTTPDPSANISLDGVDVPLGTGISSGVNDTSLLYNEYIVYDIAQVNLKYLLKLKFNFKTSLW

MDA-MB-231 = assay: Antiproliferative activity against human MDA-MB-231 cells assessed as cell growth inhibition measured after 48 hrs by WST-1 assay; type: functional, cell-based; details: MDA-MB-231, 48 h
MCF-12A = assay: Antiproliferative activity against human MCF-12A cells assessed as cell growth inhibition; type: functional, cell-based
MCF7 [12] = assay: Antiproliferative activity against human MCF7 cells assessed as cell growth inhibition; type: functional, cell-based
[13] = Inhibition of tyrosine kinase (unknown origin); set-up: species or system Homo sapiens
ECa-109 cell line = assay: Antiproliferative activity against human EC109 cells assessed as inhibition of cell growth; type: functional, cell-based
HCT-116 [14] = assay: Cytotoxicity against human HCT-116 cells assessed as cell growth inhibition by colorimetric method; type: functional, cell-based
[15] = target: Vascular endothelial growth factor receptor 3 (Homo sapiens) (UniProt P35916); assay: Inhibition of VEGFR3 (unknown origin) at 10 uM by ELISA relative to control
Chain of Vascular endothelial growth factor receptor 3 (Homo sapiens) (P35916 whole entry): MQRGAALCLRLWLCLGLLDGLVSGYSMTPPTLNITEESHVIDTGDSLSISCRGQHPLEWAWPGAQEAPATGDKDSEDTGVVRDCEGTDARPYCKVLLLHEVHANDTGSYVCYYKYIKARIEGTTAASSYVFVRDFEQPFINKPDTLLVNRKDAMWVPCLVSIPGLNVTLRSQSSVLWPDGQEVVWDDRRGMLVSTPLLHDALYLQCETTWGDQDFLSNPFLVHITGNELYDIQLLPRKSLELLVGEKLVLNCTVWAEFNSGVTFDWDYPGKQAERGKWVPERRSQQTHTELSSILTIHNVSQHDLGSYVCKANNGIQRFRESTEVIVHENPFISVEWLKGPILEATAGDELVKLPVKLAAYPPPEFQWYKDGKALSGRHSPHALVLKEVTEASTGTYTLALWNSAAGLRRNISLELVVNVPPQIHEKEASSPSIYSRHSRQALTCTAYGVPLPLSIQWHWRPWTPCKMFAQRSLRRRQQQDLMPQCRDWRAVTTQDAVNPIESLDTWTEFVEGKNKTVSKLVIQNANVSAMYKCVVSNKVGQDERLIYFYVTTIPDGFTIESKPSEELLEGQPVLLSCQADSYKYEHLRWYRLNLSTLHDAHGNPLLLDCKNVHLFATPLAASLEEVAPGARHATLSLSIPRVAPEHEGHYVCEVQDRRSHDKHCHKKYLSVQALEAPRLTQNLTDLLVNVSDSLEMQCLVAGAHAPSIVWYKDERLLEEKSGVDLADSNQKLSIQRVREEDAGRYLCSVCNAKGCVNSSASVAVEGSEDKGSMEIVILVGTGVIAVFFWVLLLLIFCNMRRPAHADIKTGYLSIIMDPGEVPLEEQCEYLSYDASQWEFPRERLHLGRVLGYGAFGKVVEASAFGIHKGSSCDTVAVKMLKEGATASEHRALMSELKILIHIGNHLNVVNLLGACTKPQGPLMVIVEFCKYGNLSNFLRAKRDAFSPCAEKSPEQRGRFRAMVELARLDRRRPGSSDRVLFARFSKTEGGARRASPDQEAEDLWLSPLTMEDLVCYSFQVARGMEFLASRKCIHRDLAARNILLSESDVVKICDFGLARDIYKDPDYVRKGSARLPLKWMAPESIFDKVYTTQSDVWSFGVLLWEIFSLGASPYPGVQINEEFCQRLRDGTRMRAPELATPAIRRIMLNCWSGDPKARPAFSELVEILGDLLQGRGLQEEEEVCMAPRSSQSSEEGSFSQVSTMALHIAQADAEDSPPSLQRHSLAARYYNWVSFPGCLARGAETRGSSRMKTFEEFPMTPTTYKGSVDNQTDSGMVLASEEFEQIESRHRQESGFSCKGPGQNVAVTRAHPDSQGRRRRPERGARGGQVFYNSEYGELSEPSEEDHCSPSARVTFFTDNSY

[16] = In vivo inhibition of VEGFR2 in Swiss albino mouse implanted with mouse Ehrlich cells incubated for 24 hrs by immunohistochemical staining based analysis relative to control; type: functional
HCT-116 [17] = assay: Cytotoxicity against human HCT-116 cells assessed as cell growth inhibition measured after 48 hrs by SRB assay; type: functional, cell-based; details: HCT-116, 48 h
SK-MEL = assay: Cytotoxicity against human SK-MEL cells assessed as cell growth inhibition; type: functional, cell-based
KB = assay: Cytotoxicity against human KB cells assessed as cell growth inhibition; type: functional, cell-based
Hs746T = assay: Antiproliferative activity against human Hs746T cells assessed as cell growth inhibition measured after 72 hrs by WST-1 assay; type: functional, cell-based
[18] = target: T1, Vascular endothelial growth factor receptor 2; assay: Binding affinity to VEGFR2 (unknown origin) at 10 uM using ULight-4E-BP1 peptide as substrate incubated for 1 hr in presence of ATP by fluorescence based analysis relative to control
A549 [19] = assay: Cytotoxicity against human A549 cells assessed as cell growth inhibition measured after 45 hrs by MTT assay; type: functional, cell-based; details: A549, 45 h
A498 = assay: Cytotoxicity against human A498 cells assessed as cell growth inhibition measured after 45 hrs by MTT assay; type: functional, cell-based; details: A498, 45 h
Ca-Ski = assay: Cytotoxicity against human Ca-Ski cells assessed as cell growth inhibition measured after 45 hrs by MTT assay; type: functional, cell-based
SiHa = assay: Cytotoxicity against human SiHa cells assessed as cell growth inhibition measured after 45 hrs by MTT assay; type: functional, cell-based
HepG2 [20] = assay: Cytotoxicity against human HepG2 cells assessed as cell growth inhibition measured after 45 hrs by MTT assay; type: functional, cell-based; details: HepG2, 45 h

COc1nc2ccc(C)cc2cc1Cc1cc(-c2ccccc2)n[nH]c1=O
IC50 (HT-29): 4.5 µM
IC50 (MIA PaCa-2): 2.2 µM

Sc1nnc(-c2ccc(Oc3ccccc3)cc2)c2ccccc12
IC50 (PC-3): 9.22 µg/mL (≈ 27.9 µM)

Cn1cc(-c2ccc(=O)n(CC3CN(c4ncc(OCC5CCNCC5)cn4)CCO3)n2)cn1 (configuration not stated)
IC50 [1]: 0.019 µM

Cc1n[nH]c(=S)cc1Cc1cc2cc(Cl)ccc2o1
IC50 (MDA-MB-468): 11.5 µM

Cc1cc(-c2ccc(OCC(=O)NNc3nnc(COc4ccc(-c5ccc(Cl)c(C)c5)nn4)o3)nn2)ccc1Cl
IC50 (MCF7 [2]): 9.41 µM
IC50 (HepG2 [3]): 8.67 µM

COc1cc2c(Oc3ccc(NC(=O)c4nn(-c5ccccc5)ccc4=O)cc3F)ccnc2cc1OCCCN1CCN(C)CC1
IC50 (HepG2 [4]): 0.49 µM
IC50 (MCF7 [5]): 0.006 µM
IC50 (A549 [6]): 0.003 µM

CC(=O)C(=NNc1ccc(Nc2nnc(-c3ccc(C)c(C)c3)cc2-c2c(-c3ccccc3)[nH]c3ccccc23)cc1)C(C)=O
IC50 (MCF7 [7]): 2.2 µg/mL (≈ 3.71 µM)

S=C(NNc1nn2cnnc2c2ccccc12)Nc1ccccc1
IC50 [8]: 0.91 µM

CCOC(=O)/C(C#N)=N/Nc1ccc(Nc2nnc(-c3ccc(C)c(C)c3)cc2-c2c(-c3ccccc3)[nH]c3ccccc23)cc1
IC50 (HepG2 [9]): 3.1 µg/mL (≈ 5.12 µM)

COc1ccc2oc(Cc3cc(=O)[nH]nc3C)cc2c1
IC50 (MCF7 [10]): 14.5 µM
IC50 (P815): 35 µM

COC1CN(C(=O)c2cc(Cc3n[nH]c(=O)c4ccccc34)ccc2F)C1
IC50 [11]: 0.0082 µM

CCc1ccc2oc(Cc3cc(=O)[nH]nc3C)cc2c1
IC50 (MCF7 [10]): 14.5 µM
IC50 (P815): 35 µM

Cc1ccc2oc(Cc3cc(=O)[nH]nc3C)cc2c1
IC50 (MCF7 [10]): 14.5 µM
IC50 (P815): 35 µM

O=C1Nc2ccccc2/C1=N/Nc1nnc(-c2ccccc2)c2ccccc12
IC50 (MDA-MB-231): 12 µM

Cc1ccc2nnc(C(=O)NNC(N)=S)c(N)c2c1
IC50 (MCF-12A): 64.2 µM
IC50 (MCF7 [12]): 0.11 µM
IC50 [13]: 0.34 µM

O=c1[nH]cc(F)c(=O)[nH]1 [FLUOROURACIL]
IC50 (ECa-109 cell line): 14.4 µM
IC50 (MDA-MB-231): 29.4 µM

O=C1Nc2ccc(Br)cc2/C1=N/Nc1nnc(-c2ccc(Cl)cc2)c2ccccc12
IC50 (MDA-MB-231): 12 µM

Cc1ccc(-c2cc(-c3c(-c4ccccc4)[nH]c4ccccc34)c(Nc3ccc(/N=N/c4c(C)nc(N)nc4C)cc3)nn2)cc1C
IC50 (HCT-116 [14]): 2.1 µg/mL (≈ 3.41 µM)

O=C1Nc2ccc(Br)cc2/C1=N/Nc1nnc(-c2ccccc2)c2ccccc12
IC50 (MDA-MB-231): 12 µM

Cc1ccc(NC(=O)c2ccc(CN3CCN(C)CC3)cc2)cc1Nc1nccc(-c2cccnc2)n1 [IMATINIB]
inhibition [15]: 89.6%
inhibition (INH) [16]: 30%

N=C(N)NS(=O)(=O)c1ccc(Nc2ccc(Nc3cccc(NC(=O)CCCl)c3)nn2)cc1
IC50 (HCT-116 [17]): 39 µM
inhibition [15]: 89.6%
inhibition (INH) [16]: 10%

O=c1c(CNc2ccccc2)cc(OS(=O)(=O)C(F)(F)F)nn1Cc1ccccc1
IC50 (SK-MEL): 3.3 µM
IC50 (KB): 2.8 µM

O=c1ccc(-c2cccnc2)nn1CC1CN(c2ncc(-c3cnn(C4CCNCC4)c3)cn2)CCO1 (configuration not stated)
IC50 (Hs746T): 1.9 µM
IC50 [1]: 0.035 µM

COc1ccc(NC(=O)CSc2nnc(-c3ccccc3)c3ccccc23)cc1
IC50 (ECa-109 cell line; read-out: IC50): 8.13 µM

O=C(Nc1ccc(Cl)c(C(F)(F)F)c1)Nc1nnc2ccc(N3CCOCC3)nn12
Activity [18]: 3%

COC1CCCN(C(=O)c2cc(Cc3n[nH]c(=O)c4ccccc34)ccc2F)CC1 (configuration not stated)
IC50 [11]: 0.0047 µM

CC(C)c1ccc(OCC(=O)NNc2ccc(Cl)nn2)c(C(C)C)c1
IC50 (A549 [19]): 6.6 µM
IC50 (A498): 6.8 µM
IC50 (Ca-Ski): 7.5 µM
IC50 (SiHa): 7.8 µM
IC50 (HepG2 [20]): 6.9 µM

O=C1Nc2ccc(F)cc2/C1=N/Nc1nnc(-c2ccccc2)c2ccccc12
IC50 (MDA-MB-231): 12 µM

Source: ChEMBL document CHEMBL5104091, “Pyridazine as a privileged structure: An updated review on anticancer activity of pyridazine containing bioactive molecules” (Eur J Med Chem, 2021)
